Measurements: ChEMBL document CHEMBL1201862, “PubChem BioAssay data set” (2004)
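In this assay, cells in 96-well plates receive the compound at five concentrations for 48 hours. Endpoints are linearly interpolated between the surrounding concentrations. Here, GI50 denotes the concentration required for 50% inhibition of growth.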 The source made the active and inactive calls. Rule as the data show it: active = GI50 up to about 1.1 µM and inactive = higher.

Tests used:
Test in all cases: inhibition of tumour cell growth, NCI panel, 48 h
ACHN = system: ACHN
CAKI-1 = system: CAKI-1
COLO 205 = system: COLO 205
EKVX = system: EKVX
HCT-116 = system: HCT-116
HOP-62 = system: HOP-62
MDA-MB-435 = system: MDA-MB-435
MOLT-4 = system: MOLT-4
Malme-3M = system: Malme-3M
NCI-H226 = system: NCI-H226
NCI-H23 = system: NCI-H23
OVCAR-8 = system: OVCAR-8
SF-539 = system: SF-539
SN12C = system: SN12C
U-251 = system: U-251
M14 = system: M14
SF-268 = system: SF-268
SNB-75 = system: SNB-75
Hs-578T = system: Hs-578T

Measured: GI50

COc1nc(C(Cl)(Cl)Cl)c(Cl)c(O)c1Cl
inactive: ACHN > 100 µM | CAKI-1 30.5 µM | COLO 205 > 100 µM | EKVX > 100 µM | HCT-116 > 100 µM | HOP-62 > 100 µM | MDA-MB-435 > 100 µM | MOLT-4 > 100 µM | Malme-3M > 100 µM | NCI-H226 > 100 µM | NCI-H23 > 100 µM | OVCAR-8 > 100 µM | SF-539 > 100 µM | SN12C > 100 µM | U-251 > 100 µM

S=C(Nc1ccccn1)Nc1ccccc1Cl
inactive: ACHN 32.2 µM | CAKI-1 > 52.4 µM | COLO 205 > 100 µM | EKVX 8.51 µM | HCT-116 > 71.9 µM | HOP-62 52 µM | M14 > 100 µM | MDA-MB-435 69.5 µM | MOLT-4 > 100 µM | Malme-3M > 48.2 µM | NCI-H23 49.9 µM | OVCAR-8 56 µM | SF-268 > 43.8 µM | SF-539 55.3 µM | SN12C > 100 µM | SNB-75 > 38.5 µM | U-251 48.6 µM

CC(=O)CCC(=O)C(=[N+]=[N-])S(=O)(=O)c1ccccc1
inactive: ACHN > 100 µM | COLO 205 > 100 µM | EKVX > 100 µM | HCT-116 > 100 µM | HOP-62 > 100 µM | Hs-578T > 100 µM | M14 > 100 µM | MDA-MB-435 > 100 µM | MOLT-4 > 100 µM | Malme-3M > 100 µM | NCI-H23 > 100 µM | OVCAR-8 > 100 µM | SF-268 > 100 µM | SF-539 > 100 µM | SN12C > 100 µM | SNB-75 > 100 µM | U-251 > 100 µM

Cc1c2c(n(CCc3ccccc3)c1C)NN=C(C#N)S2(=O)=O
inactive: ACHN > 100 µM | COLO 205 > 100 µM | EKVX > 100 µM | HCT-116 > 100 µM | HOP-62 > 100 µM | Hs-578T > 100 µM | M14 > 100 µM | MDA-MB-435 > 100 µM | MOLT-4 > 100 µM | Malme-3M > 100 µM | NCI-H23 > 100 µM | OVCAR-8 > 100 µM | SF-268 > 100 µM | SF-539 > 100 µM | SN12C > 100 µM | SNB-75 > 100 µM | U-251 > 100 µM

CCSC1=N/C(=C\c2ccco2)C(=O)N1
inactive: ACHN > 100 µM | COLO 205 > 100 µM | EKVX > 100 µM | HCT-116 > 100 µM | HOP-62 > 100 µM | Hs-578T > 100 µM | M14 > 100 µM | MDA-MB-435 > 100 µM | MOLT-4 > 100 µM | Malme-3M > 100 µM | NCI-H226 > 100 µM | NCI-H23 > 100 µM | OVCAR-8 > 100 µM | SF-268 > 100 µM | SN12C > 100 µM | SNB-75 > 100 µM | U-251 > 100 µM

CC(=O)OC1C2CCC3CC2C2(SCCS2)C31 (stereo not given)
inactive: ACHN > 100 µM | COLO 205 > 100 µM | EKVX > 100 µM | HCT-116 > 100 µM | HOP-62 87.7 µM | Hs-578T > 100 µM | M14 > 100 µM | MDA-MB-435 > 100 µM | MOLT-4 > 100 µM | Malme-3M > 100 µM | NCI-H226 > 100 µM | NCI-H23 > 100 µM | OVCAR-8 > 100 µM | SF-268 > 100 µM | SF-539 65.9 µM | SN12C > 100 µM | U-251 > 100 µM

CC(C)C1C(=O)N2CCCC2C2(O)OC(NC(=O)C3C=C4c5cccc6[nH]cc(c56)CC4N(C)C3)(C(C)C)C(=O)N12 (stereo not given)
inactive: ACHN 18.9 µM | CAKI-1 16.7 µM | COLO 205 20.7 µM | EKVX 19.5 µM | HCT-116 17.9 µM | HOP-62 23.4 µM | Hs-578T 22.5 µM | M14 23.8 µM | MDA-MB-435 29.2 µM | MOLT-4 17 µM | NCI-H23 26.9 µM | OVCAR-8 19.2 µM | SF-268 41.1 µM | SF-539 19.8 µM | SN12C 35.4 µM | SNB-75 15.3 µM | U-251 26.4 µM

COCN1C(=O)[C@@H]2CCCN2C(=O)c2cc(N)ccc21
inactive: ACHN > 100 µM | CAKI-1 > 100 µM | EKVX > 100 µM | HCT-116 > 100 µM | HOP-62 > 100 µM | Hs-578T > 100 µM | M14 > 100 µM | MDA-MB-435 > 100 µM | Malme-3M > 100 µM | NCI-H23 > 100 µM | OVCAR-8 > 100 µM | SF-268 > 100 µM | SF-539 > 100 µM | SN12C > 100 µM | SNB-75 > 100 µM | U-251 > 100 µM
active: COLO 205 < 0.01 µM

O=C1CC(c2cccc([N+](=O)[O-])c2)C2(C(=O)NC(=O)NC2=O)C(c2cccc([N+](=O)[O-])c2)C1 (stereo not given)
active: Malme-3M 0.783 µM
inactive: ACHN > 100 µM | COLO 205 > 100 µM | HCT-116 20.1 µM | HOP-62 > 100 µM | Hs-578T > 100 µM | M14 > 100 µM | MDA-MB-435 > 100 µM | MOLT-4 > 100 µM | NCI-H226 58.2 µM | NCI-H23 > 100 µM | OVCAR-8 > 100 µM | SF-268 19.7 µM | SF-539 > 100 µM | SN12C > 100 µM | SNB-75 > 100 µM | U-251 > 100 µM

CCCC/C=C/C=C/C=C/CCCCCCCC(=O)OCC(COC(=O)CCCCCCC/C=C/C1C=CC(CCCC)C(C(=O)O)C1C(=O)O)OC(=O)CCCCCCC/C=C/C=C/C=C/CCCC.OCCNCO (stereo not given)
inactive: ACHN 19 µM | CAKI-1 28.8 µM | COLO 205 15.8 µM | EKVX 19 µM | HCT-116 17 µM | HOP-62 18.6 µM | M14 15.4 µM | MOLT-4 23.7 µM | Malme-3M 20.9 µM | NCI-H226 17.5 µM | NCI-H23 19.4 µM | OVCAR-8 19.6 µM | SF-268 17.5 µM | SF-539 19 µM | SN12C 20 µM | SNB-75 19.2 µM

COc1ccc(/C=C2\SC(c3ccc(OC)cc3)N(NC(=O)Cc3ccccc3)C2=O)cc1 (stereo not given)
inactive: ACHN > 100 µM | CAKI-1 > 100 µM | COLO 205 > 100 µM | HCT-116 > 100 µM | HOP-62 > 100 µM | M14 > 100 µM | MOLT-4 79.3 µM | Malme-3M > 100 µM | NCI-H226 > 100 µM | NCI-H23 > 100 µM | OVCAR-8 > 100 µM | SF-268 > 100 µM | SF-539 > 100 µM | SN12C > 100 µM | SNB-75 > 100 µM | U-251 > 100 µM

N#CCCC1(CCC#N)CCc2ccccc2C1=O
inactive: ACHN > 100 µM | CAKI-1 > 100 µM | EKVX > 100 µM | HCT-116 > 100 µM | HOP-62 > 100 µM | M14 > 100 µM | MDA-MB-435 > 100 µM | MOLT-4 > 100 µM | Malme-3M > 100 µM | NCI-H226 > 100 µM | NCI-H23 > 100 µM | OVCAR-8 > 100 µM | SF-268 > 100 µM | SF-539 > 100 µM | SN12C > 100 µM | SNB-75 > 100 µM | U-251 > 100 µM

CCN1C(=O)C(=C/C=C/c2ccc(OC)cc2)C(=O)N(CC)C1=S
inactive: ACHN 17.7 µM | CAKI-1 21.7 µM | COLO 205 18.5 µM | EKVX 24 µM | HCT-116 17.8 µM | HOP-62 18.6 µM | Hs-578T 15.7 µM | M14 22.1 µM | MDA-MB-435 21.6 µM | MOLT-4 25.7 µM | Malme-3M 12.5 µM | NCI-H226 32.9 µM | NCI-H23 > 100 µM | OVCAR-8 21.4 µM | SF-268 24.6 µM | SF-539 19.6 µM | SN12C 18.2 µM | U-251 18.9 µM

CN(Cc1cnc2nc(N)nc(N)c2n1)c1ccc(C(=O)NC(CCS(=O)(=O)O)C(=O)O)cc1 (stereo not given)
inactive: CAKI-1 > 100 µM | COLO 205 > 72.3 µM | EKVX 1.31 µM | Hs-578T > 100 µM | NCI-H226 15.7 µM | NCI-H23 1.88 µM | OVCAR-8 21.9 µM | SN12C 4.57 µM
active: ACHN 0.527 µM | HCT-116 0.0745 µM | HOP-62 0.783 µM | M14 0.682 µM | MDA-MB-435 0.426 µM | MOLT-4 0.593 µM | SF-268 0.465 µM | SF-539 0.824 µM

CC(=O)Oc1ccc(/C=C/C(=O)OCCCOC(=O)/C=C/c2ccc(OC(C)=O)c(OC(C)=O)c2)cc1OC(C)=O
inactive: ACHN > 100 µM | CAKI-1 > 100 µM | COLO 205 > 100 µM | EKVX > 100 µM | HCT-116 58.1 µM | HOP-62 51.2 µM | Hs-578T > 100 µM | M14 > 100 µM | MDA-MB-435 > 100 µM | MOLT-4 > 100 µM | Malme-3M > 100 µM | NCI-H23 > 100 µM | OVCAR-8 > 100 µM | SF-268 > 100 µM | SF-539 > 100 µM | SN12C > 100 µM | SNB-75 > 100 µM | U-251 > 100 µM

O=C(O)COc1cc(-c2ccccc2F)nc2cc3c(cc12)OCO3
inactive: ACHN > 100 µM | CAKI-1 > 100 µM | COLO 205 > 100 µM | EKVX > 100 µM | HCT-116 > 100 µM | HOP-62 > 100 µM | M14 > 100 µM | MDA-MB-435 > 100 µM | MOLT-4 > 100 µM | Malme-3M > 100 µM | NCI-H226 > 100 µM | NCI-H23 > 100 µM | OVCAR-8 > 100 µM | SF-268 > 100 µM | SF-539 > 100 µM | SN12C > 100 µM | SNB-75 > 100 µM | U-251 > 100 µM
